{"source": "patent US20260158056A1", "about": "“USE OF LOW MOLECULAR WEIGHT HYALURONIC ACID FOR THE TREATMENT OF LUNG MUCOSAL INFLAMMATION” (INSTITUT NATIONAL DE LA SANTÉ ET DE LA RECHERCHE MÉDICALE, priority 2021, published 2026)", "type_in_all_cases": "cell-based", "key": {"[1]": {"tested_on": "IL-8 secreted by F508del/F508del CF human airway epithelial cells", "assay": "IL-8 ELISA, CF airway epithelial cell monolayers, Cytomix + treatment 24 h (co-treatment)", "details": "FIG. 3, 6; co-treatment: Cytomix + HA 1 mg/mL or Dexa 10^-6M 24 h; n=7 CF patients", "procedure": "FIG. 3: Measurement by ELISA assay of the pro-inflammatory chemokine IL-8 secreted by F508del/F508del CF human airway epithelial cells cultured as monolayers. Airway epithelial cells were seeded in 48-wells plates and cultured until confluence was reached. Cells were then treated for 24 h with a combo containing a pro-inflammatory chemokine cocktail (TNFα, IL1β and IFNγ; 10 ng/mL each) called Cytomix (Cy) and the anti-inflammatory dexamethasone (Dexa; 10^-6M), 15-45 kDa sodium-hyaluronic acid (HA-Na 15-45 kDa) (ARD—Pomacle—France—as prepared according to WO2004050187), 15-30 kDa sodium-hyaluronic acid (HA-Na 15-30 kDa) (Sigma Aldrich), or 30-50 kDa sodium-hyaluronic acid (HA-Na 30-50 kDa) (Sigma Aldrich) at 1 mg/mL. The culture medium was then collected and the IL-8 content was determined. n=7 F508del/F508del CF patient. p<0.001 (***); p<0.01 (**); p<0.05 (*). ns: non-significant.\nFIG. 6: Measurement by ELISA assay of the pro-inflammatory chemokine IL-8 secreted by F508del/F508del CF human airway epithelial cells cultured as monolayers. Airway epithelial cells were seeded in 48-wells plates and cultured until confluence was reached. Cells were then treated for 24 h with a combo containing a pro-inflammatory chemokine cocktail (TNFα, IL1β and IFNγ 10 ng/mL each) called Cytomix (Cy) and the anti-inflammatory dexamethasone (Dexa; 10^-6M), or 15-45 kDa sodium-hyaluronic acid (HA-Na 15-45 kDa) (ARD—Pomacle—France—as prepared according to WO2004050187), 15-45 kDa calcium-hyaluronic acid (HA-Ca 15-45 kDa; ARD), or 15-45 kDa potassium-hyaluronic acid (HA-K 15-45 kDa; ARD) at 1 mg/mL. The culture medium was then collected and the IL-8 content was determined. n=7 different F508del/F508del CF patients. p<0.001 (***); p<0.01 (**); p<0.05 (*). ns: non-significant."}, "[2]": {"tested_on": "IL-8 secreted by non-CF human airway epithelial cells", "assay": "IL-8 ELISA, non-CF airway epithelial cell monolayers, Cytomix 24 h then Cytomix + treatment 24 h (curative)", "details": "FIG. 12, 15; curative: Cytomix 24 h, then Cytomix + HA 1 mg/mL or Dexa 10^-6M 24 h; n=8 non-CF patients", "procedure": "(§1) FIG. 12: Measurement by ELISA assay of the pro-inflammatory chemokine IL-8 secreted non-CF human airway epithelial cells cultured as monolayers. Airway epithelial cells were seeded in 48-wells plates and cultured until confluence was reached. Cells were then treated for 24 h with a pro-inflammatory chemokine cocktail (TNFα, IL1β and IFNγ 10 ng/ml each) called Cytomix (Cy). Cells were thereafter treated with a combo containing Cytomix and the anti-inflammatory dexamethasone (Dexa; 10^-6M), 15-45 kDa sodium-hyaluronic acid (HA-Na 15-45 kDa) (ARD—Pomacle—France—as prepared according to WO2004050187), 15-30 kDa sodium-hyaluronic acid (HA-Na 15-30 kDa) (Sigma Aldrich), or 30-50 kDa sodium-hyaluronic acid (HA-Na 30-50 kDa) (Sigma Aldrich) at 1 mg/mL during the following 24 h. The culture medium was finally collected and the IL-8 content was determined by ELISA assay. n=8 different non-CF patients. p<0.001 (***); p<0.01 (**); p<0.05 (*). ns: non-significant.\n(§2) FIG. 15: Measurement by ELISA assay of the pro-inflammatory chemokine IL-8 secreted by non-CF human airway epithelial cells cultured as monolayers. Airway epithelial cells were seeded in 48-wells plates and cultured until confluence was reached. Cells were then treated for 24 h with a pro-inflammatory chemokine cocktail (TNFα, IL1β and IFNγ 10 ng/ml each) called Cytomix (Cy). Cells were thereafter treated with a combo containing Cytomix and the anti-inflammatory dexamethasone (Dexa; 10^-6M), 15-45 kDa sodium-hyaluronic acid (HA-Na 15-45 kDa) (ARD—Pomacle—France—as prepared according to WO2004050187), 15-45 kDa calcium-hyaluronic acid (HA-Ca 15-45 kDa; ARD), or 15-45 kDa potassium hyaluronic acid (HA-K 15-45 kDa; ARD) at 1 mg/mL during the following 24 h. The culture medium was finally collected and the IL-8 content was determined. n=8 different non-CF patients. p<0.001 (***); p<0.01 (**); p<0.05 (*). ns: non-significant."}, "[3]": {"tested_on": "IL-8 secreted by human COPD airway epithelial cells", "assay": "IL-8 ELISA, COPD airway epithelial cell monolayers, Cytomix 24 h then Cytomix + treatment 24 h (curative)", "details": "FIG. 17, 19; curative: Cytomix 24 h, then Cytomix + HA 1 mg/mL or Dexa 10^-6M 24 h; n=5 COPD patients", "procedure": "as §1, with “17:” for “12:”, “secreted” for “secreted non-CF”, “human COPD” for “human”, “n=5” for “n=8”, “COPD” for “non-CF”\nas §2, with “19:” for “15:”, “by” for “by non-CF”, “human COPD” for “human”, “10^-6M), or” for “10^-6M),”, “n=5” for “n=8”, “COPD” for “non-CF”"}}}
{"compound": "15-45 kDa potassium-hyaluronic acid [HA-K 15-45 kDa]", "values": [{"measurement": "decrease in IL-8 secretion", "setting": "[1]", "value": 30, "unit": "%"}, {"measurement": "decrease in IL-8 secretion", "setting": "[2]", "value": 17.8, "unit": "%"}, {"measurement": "decrease in IL-8 secretion", "setting": "[3]", "value": 61.1, "unit": "%"}]}
{"compound": "15-45 kDa sodium-hyaluronic acid [HA-Na 15-45 kDa]", "values": [{"measurement": "decrease in IL-8 secretion", "setting": "[1]", "value": 33.9, "unit": "%"}, {"measurement": "decrease in IL-8 secretion", "setting": "[2]", "value": 39.6, "unit": "%"}, {"measurement": "decrease in IL-8 secretion", "setting": "[3]", "value": 60.2, "unit": "%"}]}
{"compound": "15-45 kDa calcium-hyaluronic acid [HA-Ca 15-45 kDa]", "values": [{"measurement": "decrease in IL-8 secretion", "setting": "[1]", "value": 11.6, "unit": "%"}, {"measurement": "decrease in IL-8 secretion", "setting": "[2]", "value": 6.5, "unit": "%"}, {"measurement": "decrease in IL-8 secretion", "setting": "[3]", "value": 61.5, "unit": "%"}]}
{"compound": "15-30 kDa sodium-hyaluronic acid [HA-Na 15-30 kDa]", "values": [{"measurement": "decrease in IL-8 secretion", "setting": "[1]", "value": 40.2, "unit": "%"}, {"measurement": "decrease in IL-8 secretion", "setting": "[2]", "value": 46.1, "unit": "%"}, {"measurement": "decrease in IL-8 secretion", "setting": "[3]", "value": 65, "unit": "%"}]}
{"compound": "C[C@@H]1C[C@H]2[C@@H]3CCC4=CC(=O)C=C[C@]4(C)[C@@]3(F)[C@@H](O)C[C@]2(C)[C@@]1(O)C(=O)CO", "note": "[Dexamethasone, dexamethasone, reference compound]", "values": [{"measurement": "decrease in IL-8 secretion", "setting": "[1]", "value": 21.4, "unit": "%"}, {"measurement": "decrease in IL-8 secretion", "setting": "[2]", "value": 21.1, "unit": "%"}, {"measurement": "decrease in IL-8 secretion", "setting": "[3]", "value": 68.8, "unit": "%"}]}
{"compound": "30-50 kDa sodium-hyaluronic acid [HA-Na 30-50 kDa]", "values": [{"measurement": "decrease in IL-8 secretion", "setting": "[1]", "value": 30.1, "unit": "%"}, {"measurement": "decrease in IL-8 secretion", "setting": "[2]", "value": 34.8, "unit": "%"}, {"measurement": "decrease in IL-8 secretion", "setting": "[3]", "value": 69.5, "unit": "%"}]}
